In paper PMC5450158 (European journal of pharmaceutical sciences : official …, 2017):

These molecules were tested against T1, MRP3 (ABCC3) (Homo sapiens, UniProt O15438) (assay: inhibition of ATP-dependent [3H]-E217G uptake, membrane vesicles). Conditions: not given.
T1 sequence (O15438 whole entry): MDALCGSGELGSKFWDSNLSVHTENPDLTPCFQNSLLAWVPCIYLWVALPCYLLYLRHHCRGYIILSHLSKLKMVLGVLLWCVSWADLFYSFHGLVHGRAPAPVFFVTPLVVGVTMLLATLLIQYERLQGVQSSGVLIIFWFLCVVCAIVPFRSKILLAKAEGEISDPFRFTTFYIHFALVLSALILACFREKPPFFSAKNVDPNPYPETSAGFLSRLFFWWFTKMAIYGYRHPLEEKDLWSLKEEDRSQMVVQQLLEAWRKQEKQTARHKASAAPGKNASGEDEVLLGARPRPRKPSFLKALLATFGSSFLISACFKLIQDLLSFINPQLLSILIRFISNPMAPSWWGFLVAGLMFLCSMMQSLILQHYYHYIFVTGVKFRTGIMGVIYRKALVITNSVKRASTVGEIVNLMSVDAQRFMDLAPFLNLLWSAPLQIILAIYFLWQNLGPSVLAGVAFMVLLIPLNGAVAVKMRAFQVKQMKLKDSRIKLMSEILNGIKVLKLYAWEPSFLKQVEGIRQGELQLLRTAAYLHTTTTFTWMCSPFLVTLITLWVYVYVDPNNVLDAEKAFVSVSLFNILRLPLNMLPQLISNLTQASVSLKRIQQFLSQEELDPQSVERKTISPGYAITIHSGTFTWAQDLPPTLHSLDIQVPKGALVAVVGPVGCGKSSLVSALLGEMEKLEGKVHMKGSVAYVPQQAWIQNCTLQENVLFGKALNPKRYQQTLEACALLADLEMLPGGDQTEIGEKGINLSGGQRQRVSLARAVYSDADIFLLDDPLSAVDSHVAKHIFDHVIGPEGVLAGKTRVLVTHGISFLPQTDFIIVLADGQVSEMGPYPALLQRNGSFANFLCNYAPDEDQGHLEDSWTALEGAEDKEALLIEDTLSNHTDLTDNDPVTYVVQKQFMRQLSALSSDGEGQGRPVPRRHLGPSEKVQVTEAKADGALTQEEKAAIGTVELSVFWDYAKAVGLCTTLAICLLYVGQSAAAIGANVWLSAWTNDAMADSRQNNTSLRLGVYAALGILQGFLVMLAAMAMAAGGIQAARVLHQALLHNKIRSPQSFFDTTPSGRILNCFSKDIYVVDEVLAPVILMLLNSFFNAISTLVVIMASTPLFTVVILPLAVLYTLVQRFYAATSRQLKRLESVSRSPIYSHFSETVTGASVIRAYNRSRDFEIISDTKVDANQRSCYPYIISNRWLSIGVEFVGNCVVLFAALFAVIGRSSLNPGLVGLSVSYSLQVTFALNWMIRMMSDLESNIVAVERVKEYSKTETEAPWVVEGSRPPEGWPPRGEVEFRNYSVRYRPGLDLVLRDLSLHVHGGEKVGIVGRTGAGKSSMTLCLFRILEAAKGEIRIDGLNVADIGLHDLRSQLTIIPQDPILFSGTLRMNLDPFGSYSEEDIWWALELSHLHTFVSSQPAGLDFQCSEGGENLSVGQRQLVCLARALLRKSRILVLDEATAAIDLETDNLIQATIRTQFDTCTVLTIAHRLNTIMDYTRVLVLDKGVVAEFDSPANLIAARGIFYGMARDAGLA
Type: biochemical
For `Cc1ccc(C(=O)Nc2ccc(S(=O)(=O)O)c3cc(S(=O)(=O)O)cc(S(=O)(=O)O)c23)cc1NC(=O)c1cccc(NC(=O)Nc2cccc(C(=O)Nc3cc(C(=O)Nc4ccc(S(=O)(=O)O)c5cc(S(=O)(=O)O)cc(S(=O)(=O)O)c45)ccc3C)c2)c1` [suramin], the IC50 was 3.33 ± 0.41 µM. `CCCCc1oc2ccc(NS(C)(=O)=O)cc2c1C(=O)c1ccc(OCCCN(CCCC)CCCC)cc1` [dronedarone] was tested, and the IC50 was 47.4 ± 4.41 µM.

Same assay, conditions: 10 μM E217G, ATP, 5 min, 37 °C; 0.1-100 μM inhibitor
Work on `CCc1c(Cl)c(O)c(Cl)c(O)c1C(=O)O[C@H]1[C@H](O)[C@H](OC)[C@H](OC/C2=C\C=C\C[C@H](O)/C(C)=C/[C@H](CC)[C@@H](O[C@@H]3OC(C)(C)[C@@H](OC(=O)C(C)C)[C@H](O)[C@@H]3O)/C(C)=C/C(C)=C/C[C@@H]([C@@H](C)O)OC2=O)O[C@@H]1C` [fidaxomicin] yielded an IC50 of 1.83 ± 0.46 µM.

The molecules below were run against T1, MRP3 (ABCC3) in the same assay as above. Conditions: 10 μM E217G, 5 min, 37 °C, 100 μM compound, value is remaining uptake.
`OCCN(CCO)c1nc(N2CCCCC2)c2nc(N(CCO)CCO)nc(N3CCCCC3)c2n1` [dipyridamole] was tested, and the “E217G uptake, % of control at 100 μM” value was 52.1%. `COC(=O)N[C@H](C(=O)N[C@@H](Cc1ccccc1)[C@@H](O)CN(Cc1ccc(-c2ccccn2)cc1)NC(=O)[C@@H](NC(=O)OC)C(C)(C)C)C(C)(C)C` [atazanavir] was tested, and the “E217G uptake, % of control at 100 μM” value was 55.0%. `CNC(=O)c1cc(Oc2ccc(NC(=O)Nc3ccc(Cl)c(C(F)(F)F)c3)c(F)c2)ccn1` [regorafenib] was tested, and the “E217G uptake, % of control at 100 μM” value was 69.5%. `CCOC(=O)C1=C(C)NC(C)=C(C(=O)OC)C1c1cccc(Cl)c1Cl` (stereo not drawn) [felodipine] was tested, and the “E217G uptake, % of control at 100 μM” value was 45.8%. In the case of `CC[C@H](C)C(=O)O[C@H]1C[C@@H](C)C=C2C=C[C@H](C)[C@H](CC[C@@H]3C[C@@H](O)CC(=O)O3)[C@H]21` [lovastatin], the “E217G uptake, % of control at 100 μM” value is reported as 63.5%. `NS(=O)(=O)c1cc2c(cc1Cl)NC=NS2(=O)=O` [Chlorothiazide] was tested, and the “E217G uptake, % of control at 100 μM” value was 37.4%.
